Data on one molecule can be found in patent US9566224B2, “Tyrosinase inhibitors” (Avon Products, Inc., priority 2013, dated 2017).

For this assay, the system named is Mushroom tyrosinase. Nature of the assay: Mushroom tyrosinase assay (conversion of L-Tyrosine to DOPAchrome). Type of assay: biochemical. To be noted: 25° C., 30 min, absorbance 492 nm. Here is the method:
Mushroom Tyrosinase Assay. Mushroom tyrosinase and L-Tyrosine were obtained from Sigma-Aldrich, Inc. (St. Louis, Mo.). The enzyme activity was measured in buffer containing 100 mM phosphate buffer pH 6.8, 5% absolute ethanol, 2 micrograms/milliliter mushroom tyrosinase, and 0.2 mg/ml L-Tyrosine. The reaction (conversion of L-Tyrosine to DOPAchrome) was conducted in triplicates at 25° C. for 30 min, and absorbance was then measured at 492 nm. Kojic Acid was used as a positive control inhibitor in these assays. Percent change in tyrosinase activity relative to vehicle control was calculated.

Turning to `Oc1ccc(C=NNC(=S)NCC2CCCO2)c(O)c1` (centres unmarked) [AV6989], the “Tyrosinase Inhibition (percent change in tyrosinase activity compared to DMSO vehicle control)” value runs as follows: (concentration 0.001%) −36%; (concentration 0.01%) −75%.
